From ChEMBL document CHEMBL4507273 (2021)

Assays:
[1] = biological target: T1, 5-hydroxytryptamine receptor 2B (Homo sapiens, UniProt P41595); experiment: GPCRScan assay: inhibition of 5-HT2B; parameters: radioligand conc. used [nm] 1.0 – 2.0, parental cells stable HEK
[2] = tested on: Tyrosine-protein kinase ABL1 (Homo sapiens), P00519 [H396P]; conditions: Compound concentration 1000.0 nM
[3] = tested on: Tyrosine-protein kinase ABL1 (Homo sapiens), P00519 [H396P]; conditions: Compound concentration 1000.0 nM; remark: listed apart in the source
[4] = biological target: Tyrosine-protein kinase ABL1 (Homo sapiens) (UniProt P00519); conditions: Compound concentration 1000.0 nM
[5] = biological target: Tyrosine-protein kinase Blk (Homo sapiens) (UniProt P51451); conditions: Compound concentration 1000.0 nM
Tyrosine-protein kinase Blk (Homo sapiens), sequence (P51451 2-505 limits assumed): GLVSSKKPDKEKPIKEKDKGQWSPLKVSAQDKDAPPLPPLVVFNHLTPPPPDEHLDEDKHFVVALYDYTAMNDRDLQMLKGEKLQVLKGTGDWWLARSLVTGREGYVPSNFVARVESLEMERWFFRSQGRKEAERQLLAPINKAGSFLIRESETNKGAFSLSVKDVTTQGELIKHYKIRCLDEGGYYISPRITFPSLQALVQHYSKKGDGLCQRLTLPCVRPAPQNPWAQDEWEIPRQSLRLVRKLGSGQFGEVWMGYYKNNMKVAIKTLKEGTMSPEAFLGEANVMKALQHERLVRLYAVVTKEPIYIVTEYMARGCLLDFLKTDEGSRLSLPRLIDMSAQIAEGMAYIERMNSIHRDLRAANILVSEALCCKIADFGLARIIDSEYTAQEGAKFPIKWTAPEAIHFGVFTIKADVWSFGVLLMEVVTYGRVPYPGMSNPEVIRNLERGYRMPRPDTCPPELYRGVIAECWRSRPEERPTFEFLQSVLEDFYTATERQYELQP

[6] = biological target: Calcium/calmodulin-dependent protein kinase type II subunit beta (Homo sapiens) (UniProt Q13554); conditions: Compound concentration 1000.0 nM
Calcium/calmodulin-dependent protein kinase type II subunit beta (Homo sapiens), sequence (Q13554 whole entry): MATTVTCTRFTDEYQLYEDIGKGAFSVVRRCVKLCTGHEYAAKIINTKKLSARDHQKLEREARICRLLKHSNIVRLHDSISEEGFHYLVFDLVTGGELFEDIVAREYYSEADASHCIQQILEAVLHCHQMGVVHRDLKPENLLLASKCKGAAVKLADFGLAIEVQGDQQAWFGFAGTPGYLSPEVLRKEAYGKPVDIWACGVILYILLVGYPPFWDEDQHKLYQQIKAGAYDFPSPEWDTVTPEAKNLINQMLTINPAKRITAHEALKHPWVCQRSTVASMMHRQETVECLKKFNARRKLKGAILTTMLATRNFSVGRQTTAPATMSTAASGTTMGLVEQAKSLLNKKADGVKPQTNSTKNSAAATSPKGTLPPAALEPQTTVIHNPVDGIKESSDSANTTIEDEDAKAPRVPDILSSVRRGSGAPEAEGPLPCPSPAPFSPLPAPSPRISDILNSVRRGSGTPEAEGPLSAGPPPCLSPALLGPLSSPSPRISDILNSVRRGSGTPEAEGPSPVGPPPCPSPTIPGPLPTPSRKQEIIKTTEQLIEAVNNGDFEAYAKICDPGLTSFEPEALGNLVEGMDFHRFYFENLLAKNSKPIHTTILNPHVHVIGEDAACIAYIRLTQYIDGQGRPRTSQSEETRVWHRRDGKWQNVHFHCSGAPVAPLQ

[7] = biological target: Calcium/calmodulin-dependent protein kinase type II subunit gamma (Homo sapiens) (UniProt Q13555); conditions: Compound concentration 1000.0 nM
Calcium/calmodulin-dependent protein kinase type II subunit gamma (Homo sapiens), sequence (Q13555 whole entry): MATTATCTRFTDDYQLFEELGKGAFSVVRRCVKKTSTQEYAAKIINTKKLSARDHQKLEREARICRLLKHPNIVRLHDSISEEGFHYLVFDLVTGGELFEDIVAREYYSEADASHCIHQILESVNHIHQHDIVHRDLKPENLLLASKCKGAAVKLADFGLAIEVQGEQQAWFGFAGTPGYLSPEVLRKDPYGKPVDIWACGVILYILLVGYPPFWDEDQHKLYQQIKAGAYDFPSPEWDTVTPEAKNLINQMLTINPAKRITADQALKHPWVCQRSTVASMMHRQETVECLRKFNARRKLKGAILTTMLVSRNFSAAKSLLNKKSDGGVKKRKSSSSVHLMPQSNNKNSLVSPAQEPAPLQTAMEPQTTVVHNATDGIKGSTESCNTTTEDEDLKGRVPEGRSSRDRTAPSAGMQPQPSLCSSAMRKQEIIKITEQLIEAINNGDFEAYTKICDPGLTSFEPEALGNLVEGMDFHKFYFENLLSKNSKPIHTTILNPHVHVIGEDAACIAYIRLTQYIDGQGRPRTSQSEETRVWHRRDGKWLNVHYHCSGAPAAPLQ

[8] = biological target: Cyclin-dependent kinase 13 (Homo sapiens) (UniProt Q14004); conditions: Compound concentration 1000.0 nM
[9] = biological target: Ephrin type-A receptor 8 (Homo sapiens) (UniProt P29322); conditions: Compound concentration 1000.0 nM
[10] = biological target: Receptor tyrosine-protein kinase erbB-3 (Homo sapiens) (UniProt P21860); conditions: Compound concentration 1000.0 nM
[11] = biological target: Rhodopsin kinase GRK1 (Homo sapiens) (UniProt Q15835); conditions: Compound concentration 1000.0 nM
[12] = biological target: Beta-adrenergic receptor kinase 1 (Homo sapiens) (UniProt P25098); conditions: Compound concentration 1000.0 nM
[13] = biological target: Leucine-rich repeat serine/threonine-protein kinase 2 (Homo sapiens) (UniProt Q5S007); conditions: Compound concentration 1000.0 nM
[14] = biological target: Serine/threonine-protein kinase Nek4 (Homo sapiens) (UniProt P51957); conditions: Compound concentration 1000.0 nM
[15] = biological target: Serine/threonine-protein kinase Nek9 (Homo sapiens) (UniProt Q8TD19); conditions: Compound concentration 1000.0 nM
[16] = biological target: Mitogen-activated protein kinase 13 (Homo sapiens) (UniProt O15264); conditions: Compound concentration 1000.0 nM
Mitogen-activated protein kinase 13 (Homo sapiens), sequence (O15264 whole entry, canonical isoform): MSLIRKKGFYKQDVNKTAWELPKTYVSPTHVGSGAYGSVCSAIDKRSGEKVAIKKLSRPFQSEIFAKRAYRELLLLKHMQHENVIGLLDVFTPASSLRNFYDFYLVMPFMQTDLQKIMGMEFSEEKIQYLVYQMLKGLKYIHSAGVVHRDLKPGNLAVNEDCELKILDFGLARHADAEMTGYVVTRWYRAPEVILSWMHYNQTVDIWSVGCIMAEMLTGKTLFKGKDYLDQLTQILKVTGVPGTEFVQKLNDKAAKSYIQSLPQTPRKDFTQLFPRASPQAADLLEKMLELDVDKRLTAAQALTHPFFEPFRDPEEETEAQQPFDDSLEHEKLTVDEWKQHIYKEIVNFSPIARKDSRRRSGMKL

[17] = tested on: Phosphatidylinositol 4,5-bisphosphate 3-kinase catalytic subunit alpha isoform (Homo sapiens), P42336 [C420R]; conditions: Compound concentration 1000.0 nM
[18] = biological target: Phosphatidylinositol 4,5-bisphosphate 3-kinase catalytic subunit gamma isoform (Homo sapiens) (UniProt P48736); conditions: Compound concentration 1000.0 nM
[19] = biological target: Serine/threonine-protein kinase RIO3 (Homo sapiens) (UniProt O14730); conditions: Compound concentration 1000.0 nM
[20] = biological target: Proto-oncogene tyrosine-protein kinase Src (Homo sapiens) (UniProt P12931); conditions: Compound concentration 1000.0 nM
Proto-oncogene tyrosine-protein kinase Src (Homo sapiens), sequence (P12931 2-536 limits assumed): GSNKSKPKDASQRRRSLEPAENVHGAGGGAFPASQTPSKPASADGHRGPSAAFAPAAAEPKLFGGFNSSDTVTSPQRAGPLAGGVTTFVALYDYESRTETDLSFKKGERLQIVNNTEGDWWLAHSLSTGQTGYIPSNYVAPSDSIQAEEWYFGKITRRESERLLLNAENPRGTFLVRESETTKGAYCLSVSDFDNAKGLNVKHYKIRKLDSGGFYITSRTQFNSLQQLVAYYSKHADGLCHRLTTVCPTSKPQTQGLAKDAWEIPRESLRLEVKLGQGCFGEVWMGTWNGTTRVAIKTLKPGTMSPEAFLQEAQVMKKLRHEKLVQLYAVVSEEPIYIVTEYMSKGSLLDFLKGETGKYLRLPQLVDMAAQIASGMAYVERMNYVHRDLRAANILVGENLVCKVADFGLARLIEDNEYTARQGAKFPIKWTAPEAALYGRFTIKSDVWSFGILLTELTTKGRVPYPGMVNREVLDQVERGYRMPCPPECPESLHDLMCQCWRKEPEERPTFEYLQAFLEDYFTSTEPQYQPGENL

[21] = biological target: TGF-beta receptor type-2 (Homo sapiens) (UniProt P37173); conditions: Compound concentration 1000.0 nM
TGF-beta receptor type-2 (Homo sapiens), sequence (P37173 whole entry): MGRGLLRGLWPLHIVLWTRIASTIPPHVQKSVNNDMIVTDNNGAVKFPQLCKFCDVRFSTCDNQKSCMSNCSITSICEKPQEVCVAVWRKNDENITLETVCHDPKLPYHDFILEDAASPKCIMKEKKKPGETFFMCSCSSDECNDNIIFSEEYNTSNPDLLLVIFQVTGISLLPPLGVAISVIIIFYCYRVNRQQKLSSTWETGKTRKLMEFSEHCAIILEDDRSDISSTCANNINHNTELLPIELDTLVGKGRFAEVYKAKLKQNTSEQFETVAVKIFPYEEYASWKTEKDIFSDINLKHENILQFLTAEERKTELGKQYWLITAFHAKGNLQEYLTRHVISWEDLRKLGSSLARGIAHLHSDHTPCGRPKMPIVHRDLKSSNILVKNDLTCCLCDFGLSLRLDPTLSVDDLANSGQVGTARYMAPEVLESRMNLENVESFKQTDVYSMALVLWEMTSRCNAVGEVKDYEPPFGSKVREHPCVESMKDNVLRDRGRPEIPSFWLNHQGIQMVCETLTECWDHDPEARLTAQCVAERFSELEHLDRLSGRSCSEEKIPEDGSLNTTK

[22] = biological target: Tyrosine-protein kinase TXK (Homo sapiens) (UniProt P42681); conditions: Compound concentration 1000.0 nM
Tyrosine-protein kinase TXK (Homo sapiens), sequence (P42681 whole entry): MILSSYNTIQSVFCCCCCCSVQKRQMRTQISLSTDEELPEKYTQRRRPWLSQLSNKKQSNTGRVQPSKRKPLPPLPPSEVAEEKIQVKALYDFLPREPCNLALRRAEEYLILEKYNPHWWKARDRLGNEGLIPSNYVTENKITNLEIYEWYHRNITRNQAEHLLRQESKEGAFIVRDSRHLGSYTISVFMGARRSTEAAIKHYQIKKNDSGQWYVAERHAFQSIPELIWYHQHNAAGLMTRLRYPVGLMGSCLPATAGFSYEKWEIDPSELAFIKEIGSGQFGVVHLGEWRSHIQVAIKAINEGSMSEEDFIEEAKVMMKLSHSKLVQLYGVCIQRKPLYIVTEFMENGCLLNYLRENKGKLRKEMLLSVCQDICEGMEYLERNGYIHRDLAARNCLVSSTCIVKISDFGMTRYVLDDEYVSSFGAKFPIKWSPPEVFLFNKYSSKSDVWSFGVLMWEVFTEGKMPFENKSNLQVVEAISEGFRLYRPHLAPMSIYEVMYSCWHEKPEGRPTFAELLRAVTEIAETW

[23] = biological target: Non-receptor tyrosine-protein kinase TYK2 (Homo sapiens) (UniProt P29597); conditions: Compound concentration 1000.0 nM
[24] = biological target: Phosphatidylinositol 3-kinase catalytic subunit type 3 (Homo sapiens) (UniProt Q8NEB9); conditions: Compound concentration 1000.0 nM
[25] = biological target: Serine/threonine-protein kinase WNK2 (Homo sapiens) (UniProt Q9Y3S1); conditions: Compound concentration 1000.0 nM
[26] = biological target: T1, 5-hydroxytryptamine receptor 2B; conditions: Compound concentration 10.0 uM
[27] = biological target: D(1B) dopamine receptor (Homo sapiens) (UniProt P21918); conditions: Compound concentration 10.0 uM
D(1B) dopamine receptor (Homo sapiens), sequence (P21918 whole entry): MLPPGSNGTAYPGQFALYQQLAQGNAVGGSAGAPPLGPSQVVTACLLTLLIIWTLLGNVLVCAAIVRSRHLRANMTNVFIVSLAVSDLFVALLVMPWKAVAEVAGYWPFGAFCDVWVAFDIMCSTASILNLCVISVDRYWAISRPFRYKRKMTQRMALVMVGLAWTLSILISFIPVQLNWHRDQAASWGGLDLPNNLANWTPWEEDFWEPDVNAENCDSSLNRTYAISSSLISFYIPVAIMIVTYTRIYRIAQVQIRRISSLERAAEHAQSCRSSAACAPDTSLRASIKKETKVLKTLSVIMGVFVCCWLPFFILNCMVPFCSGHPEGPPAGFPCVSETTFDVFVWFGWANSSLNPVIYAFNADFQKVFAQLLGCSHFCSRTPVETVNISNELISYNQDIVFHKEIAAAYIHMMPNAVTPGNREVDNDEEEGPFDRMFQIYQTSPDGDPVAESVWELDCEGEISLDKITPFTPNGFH

[28] = biological target: T2, Alpha-2A adrenergic receptor (Homo sapiens) (UniProt P08913); conditions: Compound concentration 10.0 uM
T2 sequence (whole entry): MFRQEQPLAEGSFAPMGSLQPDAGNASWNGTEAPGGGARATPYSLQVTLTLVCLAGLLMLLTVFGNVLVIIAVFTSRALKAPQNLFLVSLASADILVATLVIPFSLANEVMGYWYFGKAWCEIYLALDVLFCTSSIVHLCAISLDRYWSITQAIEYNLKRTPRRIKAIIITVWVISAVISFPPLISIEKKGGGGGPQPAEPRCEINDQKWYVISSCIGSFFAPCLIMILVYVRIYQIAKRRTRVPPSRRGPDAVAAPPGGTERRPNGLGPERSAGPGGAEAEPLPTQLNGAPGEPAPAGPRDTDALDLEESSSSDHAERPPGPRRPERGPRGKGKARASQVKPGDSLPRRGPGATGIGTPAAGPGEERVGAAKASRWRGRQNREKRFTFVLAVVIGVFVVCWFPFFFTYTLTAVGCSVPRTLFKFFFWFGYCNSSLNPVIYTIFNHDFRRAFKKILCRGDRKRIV

[29] = biological target: T3, Alpha-2B adrenergic receptor (Homo sapiens) (UniProt P18089); conditions: Compound concentration 10.0 uM
T3 sequence (whole entry): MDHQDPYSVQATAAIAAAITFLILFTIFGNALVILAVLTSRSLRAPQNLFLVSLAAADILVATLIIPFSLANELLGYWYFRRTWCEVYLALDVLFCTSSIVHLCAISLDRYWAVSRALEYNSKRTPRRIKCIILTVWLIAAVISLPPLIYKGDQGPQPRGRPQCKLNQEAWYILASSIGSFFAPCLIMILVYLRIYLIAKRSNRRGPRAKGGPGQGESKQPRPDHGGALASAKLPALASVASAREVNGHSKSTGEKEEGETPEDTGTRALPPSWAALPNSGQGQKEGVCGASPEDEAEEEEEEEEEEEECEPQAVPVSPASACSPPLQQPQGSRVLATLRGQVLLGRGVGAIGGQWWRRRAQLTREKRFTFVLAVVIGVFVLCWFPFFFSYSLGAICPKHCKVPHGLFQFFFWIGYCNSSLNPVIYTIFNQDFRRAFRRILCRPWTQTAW

T1 sequence (P41595 whole entry): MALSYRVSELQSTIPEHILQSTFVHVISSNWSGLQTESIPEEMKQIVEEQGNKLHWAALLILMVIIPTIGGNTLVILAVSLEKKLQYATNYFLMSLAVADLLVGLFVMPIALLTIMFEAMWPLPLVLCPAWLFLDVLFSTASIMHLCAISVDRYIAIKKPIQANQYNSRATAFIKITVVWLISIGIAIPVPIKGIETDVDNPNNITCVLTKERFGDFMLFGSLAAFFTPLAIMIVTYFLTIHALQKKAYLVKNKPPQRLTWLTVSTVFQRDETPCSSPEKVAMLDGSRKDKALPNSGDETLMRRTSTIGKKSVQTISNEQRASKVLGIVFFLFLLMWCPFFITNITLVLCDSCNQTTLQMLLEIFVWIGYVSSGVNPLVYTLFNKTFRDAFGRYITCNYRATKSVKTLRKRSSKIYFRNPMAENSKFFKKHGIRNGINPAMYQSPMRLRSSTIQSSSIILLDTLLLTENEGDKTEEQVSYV

| Compound | Ki [1] [µM] | residual activity [2] [%] | residual activity [3] [%] | residual activity [4] [%] | residual activity [5] [%] | residual activity [6] [%] | residual activity [7] [%] | residual activity [8] [%] | residual activity [9] [%] | residual activity [10] [%] | residual activity [11] [%] | residual activity [12] [%] | residual activity [13] [%] | residual activity [14] [%] | residual activity [15] [%] | residual activity [16] [%] | residual activity [17] [%] | residual activity [18] [%] | residual activity [19] [%] | residual activity [20] [%] | also measured |
| --- | --- | --- | --- | --- | --- | --- | --- | --- | --- | --- | --- | --- | --- | --- | --- | --- | --- | --- | --- | --- | --- |
| CNCc1ccccc1-c1csc([C@@H](C)Nc2nc(C)nc3cc(OC)c(OC)cc23)c1 [BAY-293] | 0.623 | 78 | 93 | 97 | 91 | 92 | 100 | 89 | 100 | 76 | 99 | 86 | 100 | 83 | 100 | 100 | 81 | 67 | 94 | 100 | residual activity [21]: 91%; residual activity [22]: 76%; residual activity [23]: 71%; residual activity [24]: 100%; residual activity [25]: 72%; inhibition [26]: 86.9%; inhibition [27]: 32.5%; inhibition [28]: 91.7%; inhibition [29]: 64.2% |
| CNCc1ccccc1-c1csc([C@H](C)Nc2nc(C)nc3cc(OC)c(OC)cc23)c1 [BAY-294] | 0.0746 | 89 | 95 | 100 | 94 | 100 | 90 | 93 | 100 | 87 | 100 | 100 | 100 | 83 | 100 | 100 | 97 | 73 | 100 | 100 | residual activity [21]: 97%; residual activity [22]: 100%; residual activity [23]: 76%; residual activity [24]: 93%; residual activity [25]: 99%; inhibition [26]: 97.3%; inhibition [27]: 36.6%; inhibition [28]: 93.5%; inhibition [29]: 82.9% |
